# According to patent US20130178534A1, “N-Nonanoylvanillylamine as an agent for reducing the appetite, as an agent for imparting a feeling of fullness and as a mood enhancer, and corresponding substance mixtures, orally consumable products and methods” (Symrise AG, priority 2012, published 2013):
# Assays:
# SH-SY5Y cells [1] = experiment: Release of dopamine by SH-SY5Y cells (Example 1); format: cell-based, Human; details: for T/C [%] release of dopamine: 3 minutes, normalised to control
# Procedure: (§1) Human neuroblastoma cells (SH-SY5Y, ATCC number CRL-2266) are used as the cell model. Cultivation takes place at 37° C. and 5% CO2 content with a mixture consisting of equal parts of Eagle's Minimum Essential Medium (MEM) and F12 medium (in each case with 10% FBS and 1% penicillin/streptomycin). For measurement of the release of dopamine and serotonin, the cells are harvested with trypsin and, after a vitality test by trypan blue staining, are sown in a defined cell number in 35 mm cell culture dishes.
# Method for measuring the release of dopamine:
# After stimulation of 1.25*10^6 human neuroblastoma cells (SH-SY5Y) for 3 minutes with 350 μl of Krebs-Ringer HEPES buffer, pH 5, with or without addition of N-nonanoylvanillylamine (wherein in the case of addition of N-nonanoylvanillylamine, concentrations of 0.1 μM, 1 μM and 10 μM are established in the Krebs-Ringer HEPES buffer), the supernatant is acidified with 1 N HCl and the dopamine content is determined by means of an enzyme-based detection method (dopamine ELISA, DLD Diagnostica, Hamburg, Germany). The cells are lysed with a buffer containing sodium lauryl sarcosinate, and the DNA content is determined by means of a NanoQuant plate (Tecan, Ménnendorf, Switzerland) for normalisation of the dopamine release. In the case of an ethanol control (EtOH control), no N-nonanoylvanillylamine is added to the Krebs-Ringer HEPES buffer, but ethanol is added to the buffer so that a 0.1% ethanolic Krebs-Ringer HEPES buffer solution is obtained. In the case of the positive control, acetylcholine is used instead of the N-nonanoylvanillylamine, a concentration of 100 μM acetylcholine being established in the Krebs-Ringer HEPES buffer.
# SH-SY5Y cells [2] = experiment: Release of serotonin by SH-SY5Y cells (Example 3); format: cell-based, Human; details: for T/C [%] release of serotonin: normalised to control
# Procedure: as §1
# After stimulation of 1.25*10^6 human neuroblastoma cells (SH-SY5Y) for 3 minutes with 300 μl of Krebs-Ringer HEPES buffer, 0.1% ascorbic acid, pH 6.2, with or without addition of N-nonanoylvanillylamine (wherein in the case of addition of N-nonanoylvanillylamine, concentrations of 0.01 μM, 0.1 μM, 1 μM and 10 μM are established in the Krebs-Ringer HEPES buffer), the serotonin content is determined by means of an enzyme-based detection method (serotonin ELISA sensitive, […], Hamburg, Germany). The cells are lysed with a buffer containing sodium lauryl sarcosinate, and the DNA content is determined by means of a NanoQuant plate (Tecan, Ménnendorf, Switzerland) for normalisation of the serotonin release.
# SH-SY5Y cells [3] = experiment: Release of dopamine by SH-SY5Y cells with N-nonanoylvanillylamine and a TRPV1 inhibitor (Example 2); format: cell-based, Human
# Procedure: as §1
# After stimulation of 1.25*10^6 human neuroblastoma cells (SH-SY5Y) for 3 minutes with 350 μl of Krebs-Ringer HEPES buffer, pH 5, with or without addition of 1 μM N-nonanolyvanillylamine (wherein in the case of addition of N-nonanoylvanillylamine, a concentration of 1 μM is established in the Krebs-Ringer HEPES buffer) in combination with different application-relevant amounts of the selective TRPV1 inhibitor trans-4-tert-butylcyclohexanol (so that concentrations of 25, 50 and 80 μM of trans-4-tert-butylcyclo-hexanol are established in the Krebs-Ringer HEPES buffer), the supernatant is acidified with 1 N HCl and the dopamine content is determined by means of an enzyme-based detection method (dopamine ELISA, DLD Diagnostica, Hamburg, Germany). The cells are lysed with a buffer containing sodium lauryl sarcosinate, and the DNA content is determined by means of a NanoQuant plate (Tecan, Ménnendorf, Switzerland) for normalisation of the dopamine release. For comparison purposes, the tests were repeated without the addition of N-nonanoylvanillylamine.
# SH-SY5Y cells [4] = experiment: Release of serotonin by SH-SY5Y cells with N-nonanoylvanillylamine and a TRPV1 inhibitor (Example 4); format: cell-based, Human
# Procedure: as §1
# After stimulation of 1.25*10^6 human neuroblastoma cells (SH-SY5Y) for 3 minutes with 300 μl of Krebs-Ringer HEPES buffer (0.1% ascorbic acid, pH 6.2), with or without addition of N-nonanoylvanillylamine (so that a concentration of 1 μM N-nonanoylvanillylamine is established in the Krebs-Ringer HEPES buffer) in combination with different application-relevant amounts of the selective TRPV1 inhibitor trans-4-tert-butylcyclohexanol, the serotonin content is determined by means of an enzyme-based detection method (serotonin ELISA sensitive, DLD Diagnostica, Hamburg, Germany). The cells are lysed with a buffer containing sodium lauryl sarcosinate, and the DNA content is determined by means of a NanoQuant plate in a plate reader (Tecan, Ménnendorf, Switzerland) for normalisation of the serotonin release.
# [5] = Kollmannsberger 2007; cited from earlier work
# [6] = cited from earlier work
# [7] = N-nonanoylvanillylamine 1 μM + 25 μM trans-4-tert-butylcyclohexanol
# [8] = N-nonanoylvanillylamine 1 μM + 50 μM trans-4-tert-butylcyclohexanol
# [9] = N-nonanoylvanillylamine 1 μM + 80 μM trans-4-tert-butylcyclohexanol
# [10] = N-nonanoylvanillylamine 1 μM alone
# [11] = 25 μM alone, without N-nonanoylvanillylamine
# [12] = 50 μM alone, without N-nonanoylvanillylamine
# [13] = 80 μM alone, without N-nonanoylvanillylamine
smiles,measurement,setting,value
"CC(=O)OCC[N+](C)(C)C [Acetylcholine, acetylcholine, reference compound]",T/C [%] release of dopamine,SH-SY5Y cells [1]; 100 μM (positive control),139.84%
"[Cl-].[K+] [KCl, potassium chloride, reference compound]",T/C [%] release of serotonin,SH-SY5Y cells [2]; 50 mM (positive control),153.48%
CCCCCCCCC(=O)NCc1ccc(O)c(OC)c1 [N-Nonanoylvanillylamine],T/C [%] release of dopamine,SH-SY5Y cells [1]; 0.1 μM,697.84%
same,increase in the amount of dopamine released by SH-SY5Y cells,SH-SY5Y cells [1]; 100 nM,seven-fold increase
same,T/C [%] release of dopamine,SH-SY5Y cells [1]; 1 μM,1350.94%
same,T/C [%] release of dopamine,SH-SY5Y cells [1]; 10 μM,1774.98%
same,"stimulating the release of dopamine, compared with the respective control",SH-SY5Y cells [1]; approximately 0.03 mg/kg (0.1 μM),about 700%
same,increase in the amount of dopamine released,SH-SY5Y cells [3]; 1 μM,five-fold increase
same,influence of simultaneous stimulation with TRPV1 inhibitor trans-4-tert-butylcyclohexanol on the dopamine release,"SH-SY5Y cells [3]; 1 μM N-nonanoylvanillylamine, inhibitor 25, 50 and 80 μM",not significantly influenced
same,T/C [%] release of dopamine,SH-SY5Y cells [3]; [7],433.55%
same,T/C [%] release of dopamine,SH-SY5Y cells [3]; [8],456.80%
same,T/C [%] release of dopamine,SH-SY5Y cells [3]; [9],422.48%
same,T/C [%] release of dopamine,SH-SY5Y cells [3]; [10],501.20%
same,T/C [%] release of serotonin,"SH-SY5Y cells [2]; 0.01 μM, 3 minutes",191.35%
same,amount of serotonin released by SH-SY5Y cells,"SH-SY5Y cells [2]; 0.1 μM and above, p<0.005",increases highly significantly
same,T/C [%] release of serotonin,"SH-SY5Y cells [2]; 0.1 μM, 3 minutes",226.44%
same,T/C [%] release of serotonin,"SH-SY5Y cells [2]; 1 μM, 3 minutes",272.12%
same,T/C [%] release of serotonin,"SH-SY5Y cells [2]; 10 μM, 3 minutes",185.65%
same,"stimulating the release of serotonin in neurons, maximum, compared with the respective control",SH-SY5Y cells [2]; concentration range 0.01 μM to 10 μM (0.003 mg/kg to 3 mg/kg),about 270%
same,influence of addition of TRPV1 inhibitor trans-4-tert-butylcyclohexanol on the serotonin release,SH-SY5Y cells [4]; 1 μM N-nonanoylvanillylamine,not significantly influenced
same,T/C [%] release of serotonin,SH-SY5Y cells [4]; [7],154.86%
same,T/C [%] release of serotonin,SH-SY5Y cells [4]; [8],128.74%
same,T/C [%] release of serotonin,SH-SY5Y cells [4]; [9],140.81%
same,T/C [%] release of serotonin,SH-SY5Y cells [4]; N-nonanoylvanillylamine 1 μM + 200 μM trans-4-tert-butylcyclohexanol,181.93%
same,T/C [%] release of serotonin,SH-SY5Y cells [4]; [10],151.75%
same,detection threshold,[5],0.107 mg/kg
same,stimulant threshold,[5],0.054 mg/kg
same,EFSA safety rating,[6]; rated in FGE.86,no safety concern
"COc1cc(CNC(=O)CCCC/C=C/C(C)C)ccc1O [capsaicin, reference compound]",rating for genotoxicity,[6]; EFSA / Scientific Committee on Food opinion 2002,negatively rated as having genotoxic potential
"CC(C)(C)[C@H]1CC[C@H](O)CC1 [trans-4-tert-butylcyclohexanol, reference compound]",T/C [%] release of dopamine,SH-SY5Y cells [3]; [11],84.47%
same,T/C [%] release of dopamine,SH-SY5Y cells [3]; [12],38.19%
same,T/C [%] release of dopamine,SH-SY5Y cells [3]; [13],63.53%
same,T/C [%] release of serotonin,SH-SY5Y cells [4]; [11],91.07%
same,T/C [%] release of serotonin,SH-SY5Y cells [4]; [12],101.39%
same,T/C [%] release of serotonin,SH-SY5Y cells [4]; [13],84.129%
same,T/C [%] release of serotonin,"SH-SY5Y cells [4]; 200 μM alone, without N-nonanoylvanillylamine",110.99%
